Where two headings read alike, the source gives them in different places. Values belong to the compound of their own block, whether it stands above or below them.
What was measured:
DTP cells [1] = experiment: Cell growth suppression test on DTP cells; format: cell-based, human
Protocol: (§1) Next, for these nine compounds, a cell growth suppression test was conducted, and the ratio of IC50 of DTP cells with respect to the parental line was calculated.

[2] = test system: NCI-H2228 cells (parental cells); experiment: Cell growth suppression test on NCI-H2228 parental cells; format: cell-based, human; conditions: for IC50: Table 3, nine screening hits; for Sensitivity of NCI-H2228 cells: parental cells
Protocol: as §1

DTP cells [3] = experiment: Screening test of anticancer agent library (3114 compounds) for growth suppressive action on DTP cells; format: cell-based, human; conditions: DTP cells from NCI-H2228 treated with alectinib for 13 days
[4] = test system: NCI-H2228 cells (parental cells); experiment: Cell growth suppression test on NCI-H2228 parental cells; format: cell-based; conditions: Homo sapiens
FGFR1 knockout cells = experiment: Cell growth test on FGFR1 knockout cells (CRISPR/Cas9); format: cell-based, human; conditions: two clones
Text: (§2) Using NEPA21 Electroporation, crRNA and Cas9 protein (Nippon Gene Co., Ltd.) targeting FGFR1 or FGF2 (Fasmac) were introduced into cells, two single clones were isolated from each clone cell with Smart Aliquotor (NT Science, Aichi, Japan), and it was confirmed by the Western blotting analysis that FGFR1 or FGF2 knockout cells lost FGFR1 or FGF2 protein (FIG. 5C).

[5] = test system: alectinib-resistant NCI-H2228 cells; experiment: Cell growth test on alectinib-resistant NCI-H2228 cells; format: cell-based; conditions: Homo sapiens
Regrown cells = experiment: Cell growth suppression test on regrown cells; format: cell-based, human; conditions: DTP cells cultured in alectinib-free medium for 37 days; for IC50: Homo sapiens, Table 4
[6] = test system: SNU-2535 cells excessively expressing FGFR1 and FGF2; experiment: Cell growth and Western blotting in SNU-2535 cells excessively expressing FGFR1 and FGF2; format: cell-based, human; conditions: as compared to control cells or cells excessively expressing FGF2
Text: For further confirming that both FGFR1 and FGF2 are necessary for cell survival in ALK inhibitor treatment, FGFR1 and FGF2 were excessively expressed in SNU2535 cells of ALK fusion gene-positive non-small cell lung cancer (NSCLC) (FIG. 7B).
FGFR1, FGF2, or a human coding sequence (CDS) as a control was synthesized, and cloned downstream of an EF1A promoter in a lentivirus vector with VectorBuilder (Chicago, Illinois, USA), and SNU-2535 cells were infected with a lentivirus vector. After 1 day, the culture solution was cultured in a puromycin-containing medium for 4 days, cells excessively expressing FGFR1 and FGF2 were selected, and clones were isolated with Smart Aliquotor. The expression of FGFR1 or FGF2 protein was confirmed by the Western blotting analysis.

FGF2 knockout cells = experiment: Cell growth test on FGF2 knockout cells (CRISPR/Cas9); format: cell-based, human; conditions: two clones
Text: as §2

[7] = test system: FGFR1 or FGF2 knockout cells; experiment: Caspase-Glo 3/7 apoptosis assay and Western blotting in FGFR1 or FGF2 knockout cells; format: cell-based, human
Protocol: as §2
The FGFR1 or FGF2 knockout cells obtained as described above were seeded on a 384-well plate, and on the following day, a drug was added at an indicated concentration, followed by culturing for an indicated time. The caspase 3 and 7 activity to signal induction of apoptosis in cells was measured using Caspase-Glo 3/7 Assay (Promega) in accordance with the protocol from the manufacturer. […] Each point represents an average+standard deviation from three experiments.

[8] = test system: NCI-H2228 cells (parental cells); conditions: Western blotting, STAT3, AKT, ERK, S6
Protocol: (§3) The cells were seeded on a 6-well plate, and on the following day, a drug was added, followed by culturing for a certain time. A Sally Sue or Jess capillary electrophoresis-based protein analysis system (ProteinSimple, Santa Clara, CA, USA) was charged with protein lysates in equal amounts for each of Western blotting methods. As the antibody, antibodies to ALK, phospho-ALK, FGFR1, FGFR2, FGFR3, FGFR4, ERK, phospho-ERK, AKT, phospho-AKT, EGFR, phospho-EGFR, MET, β-actin, phospho-MET, HER2, CD44, BIM, VIM, CDH1, S6, pS6 and STAT3 (Cell Signaling Technology, Danvers, MA, USA), Cleaved PARP, phospho-HER2, FGF2 and FGF12 (Abcam) were used.

DTP cells [9] = conditions: Western blotting; STAT3, AKT, ERK, S6, FGFR1
Protocol: as §3

NCI-H2228 tumor = experiment: NCI-H2228 subcutaneous xenograft in nude mice; format: in vivo, mouse; conditions: oral administration for 11 days
Protocol: From The Jackson Laboratory Japan, Inc. (Yokohama, Japan), 4 to 5-week-old male BALB/c-nu/nu mice (CAnN Cg-Foxn1/Cr1Cr1j nu/nu) were purchased. Cells were subcutaneously inoculated to the right flank region at 5×10^6 per mouse. The tumor volume and the body weight were measured twice weekly, where the tumor volume was estimated as below. Tumor volume=ab^2/2 (a and b indicate the length and the width of the tumor, respectively. After the establishment of the tumor, the mice were assigned randomly to a solvent administration group, drug administration groups, or a combined administration group identical in dose and schedule to the group receiving each single drug, followed by oral administration for 11 days in a row.

[10] = NCI-H2228, Example 5, read-out: IC50 value, NCI-H2228 cells, FGFR inhibitor alone
[11] = Homo sapiens, Table 3, nine screening hits
[12] = Homo sapiens, NCI-H2228, NCI-H2228
[13] = NCI-H2228, 192 h, Example 4, treated for 8 days, single or in combination, read-out: IC50, NCI-H2228 Parental cells
[14] = NCI-H2228, FIG. 5D, 5E, read-out: IC50 value, parental cells (comparison to knockout cells)
[15] = Table 4, NCI-H2228, read-out: IC50, Parental cells

SMILES: c1cc(Nc2cc(C3CC3)[nH]n2)nc(Nc2ccc3nc[nH]c3c2)n1 [APY29]
IC50 Ratio of parental to DTP cells (DTP cells [1]; Table 3): 3.8
IC50 (DTP cells [1]; Table 3, nine screening hits): 445 nM
IC50 [2]: 1700 nM
Anti-proliferative effect on DTP cells (DTP cells [3]): 0.68

SMILES: COc1cc(CCc2cc(NC(=O)c3ccc(N4C[C@@H](C)N[C@@H](C)C4)cc3)n[nH]2)cc(OC)c1 [AZD4547, N-(5-(3,5-dimethoxyphenethyl)-1H-pyrazol-3-yl)-4-((3S, 5R)-3,5-dimethylpiperazin-1-yl)benzamide]
IC50 [4, 10]: > 1000 nM

SMILES: Cc1cc([C@@H](C)Nc2ccccc2C(=O)O)c2nc(N3CCOCC3)cc(=O)n2c1 [AZD6482]
IC50 (DTP cells [1]; [11]): 4570 nM
IC50 Ratio of parental to DTP cells (DTP cells [1]; Table 3): 2.2
IC50 ([2]; Homo sapiens, NCI-H2228): 9870 nM

SMILES: CN(C)C/C=C/C(=O)Nc1cc2c(Nc3ccc(F)c(Cl)c3)ncnc2cc1O[C@H]1CCOC1 [Afatinib]
IC50 (DTP cells [1]; [11]): 5020 nM
IC50 Ratio of parental to DTP cells (DTP cells [1]; Table 3): 1.3
IC50 ([2]; Homo sapiens, NCI-H2228): 6430 nM

IC50 [5]: > 1000 nM
SMILES: CCc1cc2c(cc1N1CCC(N3CCOCC3)CC1)C(C)(C)c1[nH]c3cc(C#N)ccc3c1C2=O.Cl [Alectinib, 9-ethyl-6,6-dimethyl-8-[4-(morpholin-4-yl)-piperidin-1-yl]-11-oxo-6,11-dihydro-5H-benzo[b]carbazole-3-carbonitrile-hydrochloride]
Sensitivity of DTP cells (DTP cells [1]): did not exhibit sensitivity
IC50 (DTP cells [1]; Homo sapiens, NCI-H2228, 312 h): > 1000 nM
IC50 (FGFR1 knockout cells; [12]): 5.4 nM
IC50 (FGFR1 knockout cells; NCI-H2228): 7.3 nM
Sensitivity of regrown cells as compared to DTP cells (Regrown cells): recovered sensitivity
IC50 (Regrown cells): 480 nM
Sensitivity of NCI-H2228 cells [2]: exhibited sensitivity
Cell growth suppressive effect in cells excessively expressing FGFR1 and FGF2 [6]: decreased
Suppressive effect on the amount of phosphorylation of ERK in cells excessively expressing FGFR1 and FGF2 [6]: decreased
IC50 [4, 13]: 220 nM
IC50 [4, 14]: 220 nM
IC50 [4, 15]: 220 nM
IC50 (FGF2 knockout cells; [12]): 5.6 nM
IC50 (FGF2 knockout cells; NCI-H2228): 6.1 nM
Induction of apoptosis (caspase 3 and 7 activity) in FGFR1 or FGF2 knockout cells as compared to parental cells [7]: enhanced
Action of inhibiting ERK in FGFR1 or FGF2 knockout cells as compared to parental cells ([7]; Western blotting): enhanced

IC50 [5]: > 1000 nM
SMILES: CCN1CCN(c2ccc(Nc3cc(N(C)C(=O)Nc4c(Cl)c(OC)cc(OC)c4Cl)ncn3)cc2)CC1 [BGJ398, N′-(2,6-dichloro-3,5-dimethoxyphenyl)-N-[6-[[4-(4-ethyl-1-piperazinyl)phenyl]amino]-4-pyrimidinyl]-N-methyl-urea]
Sensitivity of DTP cells (DTP cells [1]): exhibited sensitivity
IC50 (DTP cells [1]; Homo sapiens, NCI-H2228, 312 h): 57.8 nM
Action of inhibiting the phosphorylation of ALK/FGFR1 signal molecules in parental cells [8]: not observed
Action of inhibiting the phosphorylation of signal molecules in DTP cells (DTP cells [9]): an action of inhibiting the phosphorylation of FGFR1 and phosphorylation of ERK
Sensitivity of regrown cells as compared to DTP cells (Regrown cells): lost sensitivity
IC50 (Regrown cells): > 1000 nM
Sensitivity of NCI-H2228 cells [2]: did not exhibit sensitivity
IC50 [4, 13]: > 1000 nM
IC50 [4, 10]: > 1000 nM
IC50 [4, 15]: > 1000 nM
Tumor growth suppressive effect (NCI-H2228 tumor): did not suppress tumor growth

SMILES: C[C@@H]1C[C@H]2[C@@H]3CCC4=CC(=O)C=C[C@]4(C)[C@@]3(F)[C@@H](O)C[C@]2(C)[C@@]1(O)C(=O)CO [Dexamethasone]
IC50 (DTP cells [1]; [11]): 1320 nM
IC50 ([2]; Homo sapiens, NCI-H2228): > 10000 nM

SMILES: COc1cc(OC)cc(N(CCNC(C)C)c2ccc3ncc(-c4cnn(C)c4)nc3c2)c1 [Erdafitinib, N^1-(3,5-dimethoxyphenyl)-N^2-(1-methylethyl)-N^1-[3-(1-methyl-1H-pyrazol-4-yl)-6-quinoxalinyl]-1,2-ethanediamine]
Cell growth suppressive effect on DTP cells among the nine compounds (DTP cells [1]; by ratio of IC50): most potent cell growth suppressive effect

SMILES: C[C@]12CCC(=O)C=C1CC[C@@H]1[C@@H]2[C@@H](O)C[C@@]2(C)[C@H]1CC[C@]2(O)C(=O)CO [Hydrocortisone]
IC50 (DTP cells [1]; [11]): 2160 nM
IC50 ([2]; Homo sapiens, NCI-H2228): > 10000 nM

SMILES: C[C@H]1Oc2cc(cnc2N)-c2c(nn(C)c2C#N)CN(C)C(=O)c2ccc(F)cc21 [Lorlatinib, (10R)-7-amino-12-fluoro-2,10,16-trimethyl-15-oxo-10,15,16,17-tetrahydro-2H-4,8-methanepyrazolo[4,3-h][2,5,11]benzoxadiazacyclotetradecine-3-carbonitrile]
IC50 (DTP cells [1]; Homo sapiens, NCI-H2228, 312 h): > 1000 nM
IC50 (FGFR1 knockout cells; [12]): 0.7 nM
IC50 [4, 14]: > 1000 nM
IC50 [4, 15]: 3.8 nM
IC50 (FGF2 knockout cells; [12]): 0.7 nM
IC50 (FGF2 knockout cells; NCI-H2228): 0.9 nM

SMILES: COc1cc([C@@H]2c3cc4c(cc3[C@H](O)[C@H]3COC(=O)[C@@H]23)OCO4)cc(OC)c1OC [PPP, picropodophyllin]
Cell growth suppressive effects in parental cells and DTP cells compared (DTP cells [1]; FIGS. 1A and B): substantially equivalent
IC50 (DTP cells [1]; Homo sapiens, NCI-H2228, 312 h): 182 nM
IC50 [4, 15]: 152 nM

SMILES: C=CC(=O)N1CCC(Oc2cc3c(Nc4ccc(Cl)c(Cl)c4F)ncnc3cc2OC)CC1 [Poziotinib]
IC50 (DTP cells [1]; [11]): 1390 nM
IC50 Ratio of parental to DTP cells (DTP cells [1]; Table 3): 2.8
IC50 ([2]; Homo sapiens, NCI-H2228): 3920 nM

SMILES: CN(C)C/C=C/C(=O)Nc1ccc(C(=O)N2CCC[C@@H](Nc3ncc(Cl)c(-c4c[nH]c5ccccc45)n3)C2)cc1 [THZ531]
IC50 (DTP cells [1]; [11]): 154 nM
IC50 Ratio of parental to DTP cells (DTP cells [1]; Table 3): 1.8
IC50 ([2]; Homo sapiens, NCI-H2228): 270 nM

SMILES: C[C@]12C=CC(=O)C=C1CC[C@H]1[C@@H]3C[C@@H](O)[C@](O)(C(=O)CO)[C@@]3(C)C[C@H](O)[C@@]12F [Triamcinolone]
IC50 (DTP cells [1]; [11]): 1360 nM
IC50 ([2]; Homo sapiens, NCI-H2228): > 10000 nM

Source: US20260140118A1, “COMBINATION DRUG” (CHUGAI SEIYAKU KABUSHIKI KAISHA, priority 2022, published 2026)
